How the values were obtained:
[1] = target: T1, human Cereblon WT GST-tagged protein (Homo sapiens, UniProt Q96SW2); assay: CRBN-binding affinity, HTRF (CEREBLON BINDING kit); conditions: displacement of Thalidomide-Re reagent, 3 hours at room temperature
T1 construct: purchased CISBIO 64BDCRBNPEH
Method in brief: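 Compounds displace a thalidomide-Re tracer from GST-tagged human Cereblon WT, detected with an Eu-labelled anti-GST antibody by time-resolved fluorescence. Signal at 620 nm was normalised against solvent and blank controls.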

CK1α = target: T2, CK1α (Homo sapiens, UniProt P48729+Q96SW2); assay: Western-blot assay, substrate protein in hPBMCs; format: cell-based; conditions: hPBMC cells, 24 hours, tested at 50 nM and 500 nM, table does not say which
T2 construct: endogenous in cells; host or cells: human PBMCs (Milecell Biotechnologies)
T2 sequence (P48729 whole entry): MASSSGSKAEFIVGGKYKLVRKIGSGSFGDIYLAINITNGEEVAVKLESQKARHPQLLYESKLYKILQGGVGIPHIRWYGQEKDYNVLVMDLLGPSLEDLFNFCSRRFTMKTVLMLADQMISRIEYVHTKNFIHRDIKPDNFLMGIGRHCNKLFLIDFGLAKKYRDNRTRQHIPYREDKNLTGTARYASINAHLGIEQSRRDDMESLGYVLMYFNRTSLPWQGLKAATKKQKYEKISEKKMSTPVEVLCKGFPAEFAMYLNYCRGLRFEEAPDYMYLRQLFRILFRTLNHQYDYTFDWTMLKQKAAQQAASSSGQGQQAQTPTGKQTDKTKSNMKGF
T2 sequence (Q96SW2 whole entry): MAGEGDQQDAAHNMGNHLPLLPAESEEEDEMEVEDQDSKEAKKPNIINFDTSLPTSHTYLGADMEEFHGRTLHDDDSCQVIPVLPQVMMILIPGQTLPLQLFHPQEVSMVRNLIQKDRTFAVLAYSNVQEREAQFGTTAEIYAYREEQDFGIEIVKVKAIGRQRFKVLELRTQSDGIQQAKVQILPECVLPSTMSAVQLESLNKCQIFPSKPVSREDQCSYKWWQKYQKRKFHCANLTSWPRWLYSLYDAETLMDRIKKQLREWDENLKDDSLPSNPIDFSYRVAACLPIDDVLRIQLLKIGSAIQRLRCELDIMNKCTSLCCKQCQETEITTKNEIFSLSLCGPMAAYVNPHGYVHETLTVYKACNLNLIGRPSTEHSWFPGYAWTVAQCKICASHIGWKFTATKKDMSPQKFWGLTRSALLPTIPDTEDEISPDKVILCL
T2 sequence (Q16531 whole entry partner): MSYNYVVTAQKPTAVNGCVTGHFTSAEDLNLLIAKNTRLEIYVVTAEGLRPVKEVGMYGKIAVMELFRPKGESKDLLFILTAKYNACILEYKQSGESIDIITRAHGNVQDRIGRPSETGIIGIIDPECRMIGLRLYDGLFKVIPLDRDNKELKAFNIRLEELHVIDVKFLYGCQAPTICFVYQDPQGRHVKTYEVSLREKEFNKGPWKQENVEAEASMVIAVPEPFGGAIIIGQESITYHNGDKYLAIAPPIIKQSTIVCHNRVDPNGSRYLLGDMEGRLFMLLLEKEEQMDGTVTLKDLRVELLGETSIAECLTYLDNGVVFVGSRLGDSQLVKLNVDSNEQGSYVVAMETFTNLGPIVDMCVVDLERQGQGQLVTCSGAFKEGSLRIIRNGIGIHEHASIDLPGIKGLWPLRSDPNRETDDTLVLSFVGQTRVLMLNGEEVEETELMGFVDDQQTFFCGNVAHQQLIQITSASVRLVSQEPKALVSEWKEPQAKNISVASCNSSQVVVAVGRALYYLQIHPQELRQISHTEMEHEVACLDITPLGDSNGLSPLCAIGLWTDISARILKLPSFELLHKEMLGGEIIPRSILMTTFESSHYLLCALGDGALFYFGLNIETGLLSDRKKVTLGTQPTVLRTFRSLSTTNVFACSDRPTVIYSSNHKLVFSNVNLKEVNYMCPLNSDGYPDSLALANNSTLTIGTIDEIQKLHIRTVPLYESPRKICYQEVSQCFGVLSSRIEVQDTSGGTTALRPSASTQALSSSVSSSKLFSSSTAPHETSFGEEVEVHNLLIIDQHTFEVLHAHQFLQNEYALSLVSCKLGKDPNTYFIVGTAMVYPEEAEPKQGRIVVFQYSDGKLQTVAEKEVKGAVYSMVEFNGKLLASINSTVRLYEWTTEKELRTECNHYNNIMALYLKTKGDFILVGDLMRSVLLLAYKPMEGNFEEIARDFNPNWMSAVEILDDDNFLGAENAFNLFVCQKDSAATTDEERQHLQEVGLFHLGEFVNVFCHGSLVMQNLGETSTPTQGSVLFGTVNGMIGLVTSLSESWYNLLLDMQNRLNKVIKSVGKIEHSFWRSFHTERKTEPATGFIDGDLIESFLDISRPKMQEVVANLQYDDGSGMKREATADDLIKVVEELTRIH
Method in brief: (§1)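 Thawed hPBMCs, 1×10^6 cells/mL; 24 h compound; RIPA + phosphatase inhibitor lysis, BCA-normalised loading, SDS-PAGE, NC transfer, immunodetection. Bands vs internal control → % remaining; DC50 = concentration at 50% of DMSO band intensity.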

GSPT1 = target: T3, GSPT1 (Homo sapiens, UniProt P15170+Q96SW2); assay: Western-blot assay, substrate protein in hPBMCs; format: cell-based; conditions: hPBMC cells, 24 hours, tested at 50 nM and 500 nM, table does not say which
T3 construct: endogenous in cells; host or cells: human PBMCs (Milecell Biotechnologies)
T3 sequence (P15170 whole entry): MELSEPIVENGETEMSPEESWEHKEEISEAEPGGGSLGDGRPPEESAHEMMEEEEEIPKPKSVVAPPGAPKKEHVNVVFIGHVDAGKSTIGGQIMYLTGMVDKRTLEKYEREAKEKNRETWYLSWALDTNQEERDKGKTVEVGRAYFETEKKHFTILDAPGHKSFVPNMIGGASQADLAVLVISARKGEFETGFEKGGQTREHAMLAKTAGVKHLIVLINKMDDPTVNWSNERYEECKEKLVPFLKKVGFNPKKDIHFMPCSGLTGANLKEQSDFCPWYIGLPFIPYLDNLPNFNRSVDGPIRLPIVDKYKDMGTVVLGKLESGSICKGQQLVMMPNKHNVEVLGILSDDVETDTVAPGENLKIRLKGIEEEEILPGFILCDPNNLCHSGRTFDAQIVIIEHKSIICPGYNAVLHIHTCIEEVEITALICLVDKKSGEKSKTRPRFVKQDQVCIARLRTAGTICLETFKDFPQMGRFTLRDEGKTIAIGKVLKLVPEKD
T3 sequence (Q96SW2 whole entry): as the sequence (Q96SW2 whole entry) above
T3 sequence (Q16531 whole entry partner): as the sequence (Q16531 whole entry partner) above
Method in brief: as §1

IKZF2 = target: T4, IKZF2 (Homo sapiens, UniProt Q96SW2+Q9UKS7); assay: Western-blot assay, substrate protein in hPBMCs; format: cell-based; conditions: hPBMC cells, 24 hours, tested at 50 nM and 500 nM, table does not say which
T4 construct: endogenous in cells; host or cells: human PBMCs (Milecell Biotechnologies)
T4 sequence (Q9UKS7 whole entry): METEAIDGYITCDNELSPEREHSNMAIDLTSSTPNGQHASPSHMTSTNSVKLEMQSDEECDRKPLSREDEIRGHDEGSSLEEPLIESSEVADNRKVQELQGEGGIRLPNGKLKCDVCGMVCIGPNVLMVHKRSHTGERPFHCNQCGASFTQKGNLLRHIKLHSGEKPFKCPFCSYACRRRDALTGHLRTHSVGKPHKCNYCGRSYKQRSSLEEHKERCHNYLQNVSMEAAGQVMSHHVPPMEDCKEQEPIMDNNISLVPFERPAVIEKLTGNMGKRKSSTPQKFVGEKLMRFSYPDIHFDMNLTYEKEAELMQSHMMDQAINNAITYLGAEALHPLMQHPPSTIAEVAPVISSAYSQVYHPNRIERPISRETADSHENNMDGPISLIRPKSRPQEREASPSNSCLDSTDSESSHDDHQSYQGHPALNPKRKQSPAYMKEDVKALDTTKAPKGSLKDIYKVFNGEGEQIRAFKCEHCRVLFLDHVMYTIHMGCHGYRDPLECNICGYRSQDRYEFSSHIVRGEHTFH
T4 sequence (Q96SW2 whole entry): as the sequence (Q96SW2 whole entry) above
T4 sequence (Q16531 whole entry partner): as the sequence (Q16531 whole entry partner) above
Method in brief: as §1

Wee1 = target: T5, Wee1 (Homo sapiens, UniProt P30291+Q96SW2); assay: Western-blot assay, substrate protein in hPBMCs; format: cell-based; conditions: hPBMC cells, 24 hours, tested at 50 nM and 500 nM, table does not say which
T5 construct: endogenous in cells; host or cells: human PBMCs (Milecell Biotechnologies)
T5 sequence (P30291 whole entry): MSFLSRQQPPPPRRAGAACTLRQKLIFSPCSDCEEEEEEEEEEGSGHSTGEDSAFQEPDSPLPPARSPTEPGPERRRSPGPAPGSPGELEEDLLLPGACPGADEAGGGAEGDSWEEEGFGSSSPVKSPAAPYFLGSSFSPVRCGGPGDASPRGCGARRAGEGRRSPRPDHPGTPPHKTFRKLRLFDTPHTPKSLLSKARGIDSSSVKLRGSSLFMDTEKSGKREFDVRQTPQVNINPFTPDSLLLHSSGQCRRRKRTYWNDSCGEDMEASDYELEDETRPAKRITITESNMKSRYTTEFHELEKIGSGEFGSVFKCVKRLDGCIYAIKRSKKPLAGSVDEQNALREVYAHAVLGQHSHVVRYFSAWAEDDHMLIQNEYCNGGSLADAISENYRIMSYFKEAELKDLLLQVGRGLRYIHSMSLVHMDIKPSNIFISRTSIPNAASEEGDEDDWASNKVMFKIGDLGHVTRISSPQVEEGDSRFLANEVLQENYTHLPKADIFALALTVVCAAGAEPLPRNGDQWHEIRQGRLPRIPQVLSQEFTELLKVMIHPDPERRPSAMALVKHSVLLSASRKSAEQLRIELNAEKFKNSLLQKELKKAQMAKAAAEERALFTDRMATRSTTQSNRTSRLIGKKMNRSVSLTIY
T5 sequence (Q96SW2 whole entry): as the sequence (Q96SW2 whole entry) above
T5 sequence (Q16531 whole entry partner): as the sequence (Q16531 whole entry partner) above
Method in brief: as §1

IKZF1 = target: T6, IKZF1 (Homo sapiens, UniProt Q13422+Q96SW2); assay: Western-blot assay, substrate protein in hPBMCs; format: cell-based; conditions: hPBMC cells, 24 hours, tested at 50 nM and 500 nM, table does not say which
T6 construct: endogenous in cells; host or cells: human PBMCs (Milecell Biotechnologies)
T6 sequence (Q13422 whole entry): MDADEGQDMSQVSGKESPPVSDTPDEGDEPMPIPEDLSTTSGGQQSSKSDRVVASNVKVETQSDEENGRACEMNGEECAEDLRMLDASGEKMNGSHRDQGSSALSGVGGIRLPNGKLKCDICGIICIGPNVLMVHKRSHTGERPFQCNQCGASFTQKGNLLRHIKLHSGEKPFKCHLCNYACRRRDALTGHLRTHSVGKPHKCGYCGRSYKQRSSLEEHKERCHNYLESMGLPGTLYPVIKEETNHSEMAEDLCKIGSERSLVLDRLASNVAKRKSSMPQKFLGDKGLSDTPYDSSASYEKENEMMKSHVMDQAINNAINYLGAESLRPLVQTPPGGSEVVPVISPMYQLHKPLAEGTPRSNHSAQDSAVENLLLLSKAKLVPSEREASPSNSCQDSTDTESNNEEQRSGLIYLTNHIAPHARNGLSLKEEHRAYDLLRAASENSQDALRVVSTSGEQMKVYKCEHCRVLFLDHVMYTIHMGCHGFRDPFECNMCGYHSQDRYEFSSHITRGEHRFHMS
T6 sequence (Q96SW2 whole entry): as the sequence (Q96SW2 whole entry) above
T6 sequence (Q16531 whole entry partner): as the sequence (Q16531 whole entry partner) above
Procedure: The effect of the compounds of the present disclosure on the expression of target proteins in cells was detected using conventional Western blot analysis.
Human peripheral blood mononuclear cells (hPBMCs) at a density of 1×10^6 cells/mL were thawed according to the PBMC Recovery Protocol (Milecell Biotechnologies Inc, Shanghai). The cells were then treated with the compounds of the present disclosure (including the compounds listed in Tables 1 and 2, and the Examples A1-A20 and 1-116 compounds) at concentrations of 50 nM and 500 nM.
Controls included a negative control (DMSO) and a positive control (the commercial immunomodulatory drug lenalidomide), both processed following the identical experimental protocol as the compounds of the present disclosure. After 24 hours of compounds treatment, cells were harvested and lysed in RIPA protein lysate containing phosphatase inhibitors on ice for 30-60 min, followed by centrifugation. The supernatant was aspirated as the extracted total cell protein. The protein concentration of the supernatant was determined using the conventional BCA (Bicinchoninic Acid) assay. The supernatant was then mixed with 4× SDS sample loading buffer, denatured at 95° C. for 5 minutes, and then subjected to SDS-PAGE electrophoresis on a polyacrylamide gel. Proteins were then transferred to a nitrocellulose (NC) membrane, blocked at room temperature for 1-2 h, and processed for antibody incubation and detection according to the manufacturer's instructions (Cell Signaling Technology).
Half-Maximal Degradation Concentration value (the drug concentration required for degrading proteins by 50%, abbreviated as DC50) reads method: comparing the grayscale values of Western blot bands from drug-treated samples with those from blank DMSO-treated controls, and identifying the drug concentration range at which the grayscale value is half that of the DMSO-treated control bands.
DC50 values can be calculated using ImageJ software to measure grayscale values of Western blot bands from drug-treated samples. The concentration-response curve is fitted to estimate the drug concentration corresponding to half the grayscale value.
Target protein remaining (%) refers to the percentage of target protein remaining in hPBMC cells after treatment with protein degrader compounds.
Calculation method for protein remaining (%): Use ImageJ software to measure grayscale values of Western blot bands from drug (protein degrader)-treated samples. The grayscale value of drug-treated bands is divided by that of internal control protein bands, and the resulting quotient is normalized to obtain the relative percentage of remaining target protein after protein degrader treatment.
Target protein degradation rate (%)=100%−target protein remaining (%).

T1 sequence (Q96SW2 whole entry): as the sequence (Q96SW2 whole entry) above

SMILES | IC50 [1] [nM] | substrate protein remaining % (CK1α) | substrate protein remaining % (GSPT1) | substrate protein remaining % (IKZF2) | substrate protein remaining % (Wee1) | substrate protein remaining % (IKZF1)
O=C1CCC(N2Cc3cc(SC4CC5(CCN(C(c6ccccc6)c6ccccc6)CC5)C4)ccc3C2=O)C(=O)N1 (centres unmarked) [GT-06920, 3-(5-((7-benzhydryl-7-azaspiro[3.5]nonan-2-yl)thio)-1-oxoisoindolin-2-yl)piperidine-2,6-dione] | < 500 | – | – | – | A (0%≤ substrate protein remaining % ≤80%) | A (0%≤ substrate protein remaining % ≤80%)
CC1(C)CCC(CN2CC(Sc3ccc4c(c3)CN(C3CCC(=O)NC3=O)C4=O)C2)=C(c2ccc(Cl)cc2)C1 (centres unmarked) [GT-03464, 3-(5-((1-((4′-chloro-5,5-dimethyl-3,4,5,6-tetrahydro-[1,1′-biphenyl]-2-yl)methyl)azetidin-3-yl)thio)-1-oxoisoindolin-2-yl)piperidine-2,6-dione] | < 500 | A (0%≤ substrate protein remaining % ≤80%) | A (0%≤ substrate protein remaining % ≤80%) | – | A (0%≤ substrate protein remaining % ≤80%) | A (0%≤ substrate protein remaining % ≤80%)
O=C1CCC(N2Cc3cc(SC4CN(Cc5cccc(-c6ccc(Cl)cc6)c5)C4)ccc3C2=O)C(=O)N1 (centres unmarked) [GT-06225, 3-(5-((1-((4′-chloro-[1,1′-biphenyl]-3-yl)methyl)azetidin-3-yl)thio)-1-oxoisoindolin-2-yl)piperidine-2,6-dione] | < 500 | – | A (0%≤ substrate protein remaining % ≤80%) | – | – | A (0%≤ substrate protein remaining % ≤80%)
CC1(C)CCC(C(=O)N2CCC(Oc3ccc4c(c3)CN(C3CCC(=O)NC3=O)C4=O)C2)=C(c2ccc(Cl)cc2)C1 (centres unmarked) [GT-06816, 3-(5-((1-(4′-chloro-5,5-dimethyl-3,4,5,6-tetrahydro-[1,1′-biphenyl]-2-carbonyl)pyrrolidin-3-yl)oxy)-1-oxoisoindolin-2-yl)piperidine-2,6-dione] | < 500 | A (0%≤ substrate protein remaining % ≤80%) | A (0%≤ substrate protein remaining % ≤80%) | A (0%≤ substrate protein remaining % ≤80%) | A (0%≤ substrate protein remaining % ≤80%) | –
CC1(C)CCC(CN2CC(Sc3cccc4c3C(=O)N(C3CCC(=O)NC3=O)C4)C2)=C(c2ccc(Cl)cc2)C1 (centres unmarked) [GT-06812, 3-(7-((1-((4′-chloro-5,5-dimethyl-3,4,5,6-tetrahydro-[1,1′-biphenyl]-2-yl)methyl)azetidin-3-yl)thio)-1-oxoisoindolin-2-yl)piperidine-2,6-dione] | 1000 to 1900 | – | A (0%≤ substrate protein remaining % ≤80%) | – | A (0%≤ substrate protein remaining % ≤80%) | A (0%≤ substrate protein remaining % ≤80%)
O=C1CCC(N2Cc3cccc(SC4CNC4)c3C2=O)C(=O)N1 (centres unmarked) [GT-06994, 3-(7-(azetidin-3-ylthio)-1-oxoisoindolin-2-yl)piperidine-2,6-dione] | – | – | – | A (0%≤ substrate protein remaining % ≤80%) | – | A (0%≤ substrate protein remaining % ≤80%)
CC1(C)CCC(C(=O)N2CC(Sc3ccc4c(c3)CN(C3CCC(=O)NC3=O)C4=O)C2)=C(c2ccc(Cl)cc2)C1 (centres unmarked) [GT-06137, 3-(5-((1-(4′-chloro-5,5-dimethyl-3,4,5,6-tetrahydro-[1,1′-biphenyl]-2-carbonyl)azetidin-3-yl)thio)-1-oxoisoindolin-2-yl)piperidine-2,6-dione] | 500 to 1000 | – | A (0%≤ substrate protein remaining % ≤80%) | – | A (0%≤ substrate protein remaining % ≤80%) | A (0%≤ substrate protein remaining % ≤80%)
O=C1CCC(N2Cc3cc(SC4CN(Cc5ccc(-c6ccc(Cl)cc6)cc5)C4)ccc3C2=O)C(=O)N1 (centres unmarked) [GT-06226, 3-(5-((1-((4′-chloro-[1,1′-biphenyl]-4-yl)methyl)azetidin-3-yl)thio)-1-oxoisoindolin-2-yl)piperidine-2,6-dione] | 500 to 1000 | – | – | – | A (0%≤ substrate protein remaining % ≤80%) | A (0%≤ substrate protein remaining % ≤80%)

Further lines, with some results ahead:

IC50 [1] [nM] | SMILES | substrate protein remaining % (CK1α) | substrate protein remaining % (GSPT1) | substrate protein remaining % (IKZF2) | substrate protein remaining % (Wee1) | substrate protein remaining % (IKZF1)
< 500 | O=C1CCC(N2Cc3cc(OC4CN(C(c5ccccc5)c5ccccn5)C4)ccc3C2=O)C(=O)N1 (centres unmarked) [GT-06559, 3-(1-oxo-5-((1-(phenyl(pyridin-2-yl)methyl)azetidin-3-yl)oxy)isoindolin-2-yl)piperidine-2,6-dione] | A (0%≤ substrate protein remaining % ≤80%) | A (0%≤ substrate protein remaining % ≤80%) | A (0%≤ substrate protein remaining % ≤80%) | A (0%≤ substrate protein remaining % ≤80%) | –
500 to 1000 | O=C1CCC(N2Cc3cc(OC4CN(C(c5cccc(F)c5)c5cccc(F)c5)C4)ccc3C2=O)C(=O)N1 (centres unmarked) [GT-06352, 3-(5-((1-(bis(3-fluorophenyl)methyl)azetidin-3-yl)oxy)-1-oxoisoindolin-2-yl)piperidine-2,6-dione] | A (0%≤ substrate protein remaining % ≤80%) | A (0%≤ substrate protein remaining % ≤80%) | – | – | A (0%≤ substrate protein remaining % ≤80%)
< 500 | O=C1CCC(N2Cc3cc(OC4CC5CN(C(=O)c6ccccc6-c6ccc(Cl)cc6)CC5C4)ccc3C2=O)C(=O)N1 (centres unmarked) [GT-06954, 3-(5-((2-(4′-chloro-[1,1′-biphenyl]-2-carbonyl)octahydro-cyclopenta[c]pyrrol-5-yl)oxy)-1-oxoisoindolin-2-yl)piperidine-2,6-dione] | – | A (0%≤ substrate protein remaining % ≤80%) | A (0%≤ substrate protein remaining % ≤80%) | A (0%≤ substrate protein remaining % ≤80%) | A (0%≤ substrate protein remaining % ≤80%)
< 500 | O=C1CCC(N2Cc3cc(OC4CN(Cc5ccc(-c6ccco6)s5)C4)ccc3C2=O)C(=O)N1 (centres unmarked) [GT-06562, 3-(5-((1-((5-(furan-2-yl)thiophen-2-yl)methyl)azetidin-3-yl)oxy)-1-oxoisoindolin-2-yl)piperidine-2,6-dione] | – | A (0%≤ substrate protein remaining % ≤80%) | – | A (0%≤ substrate protein remaining % ≤80%) | A (0%≤ substrate protein remaining % ≤80%)
< 500 | O=C1CCC(N2Cc3cc(OC4CN(C(c5ccccc5)c5cccnc5)C4)ccc3C2=O)C(=O)N1 (centres unmarked) [GT-06760, 3-(1-oxo-5-((1-(phenyl(pyridin-3-yl)methyl)azetidin-3-yl)oxy)isoindolin-2-yl)piperidine-2,6-dione] | – | – | A (0%≤ substrate protein remaining % ≤80%) | A (0%≤ substrate protein remaining % ≤80%) | A (0%≤ substrate protein remaining % ≤80%)
500 to 1000 | O=C1CCC(N2Cc3cc(SC4CN(C(c5ccc(F)cc5)c5ccc(F)cc5)C4)ccc3C2=O)C(=O)N1 (centres unmarked) [GT-06503, 3-(5-((1-(bis(4-fluorophenyl)methyl)azetidin-3-yl)thio)-1-oxoisoindolin-2-yl)piperidine-2,6-dione] | A (0%≤ substrate protein remaining % ≤80%) | A (0%≤ substrate protein remaining % ≤80%) | – | A (0%≤ substrate protein remaining % ≤80%) | A (0%≤ substrate protein remaining % ≤80%)

— patent US20260207578A1, “COMPOUND BASED ON SULFUR/OXYGEN SUBSTITUTED GLUTARIMIDE-BASED ISOINDOLINONE SKELETON AND USE THEREOF” (Gluetacs Therapeutics (Shanghai) Co., LTD., priority 2022, published 2026)
